{"source": "the supplement of paper PMC10307832", "experiment_in_all_cases": "relative viability (nuclei count vs DMSO), 5 days (fraction); higher = more cells survive", "key": {"NCI-H1975": {"system": "NCI-H1975", "method_in_brief": "(§1)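 Lung cancer cell lines were seeded in 1536-well plates and dosed by pin tool the next day, with either a single drug or a fixed anchor-drug dose combined with five library-drug doses (not always all listed) spaced in √10 steps. Five days later, one step fixed the cells and stained their nuclei (final 0.05% Triton X-100, 1% formaldehyde, 1 ug/ml Hoechst), and nuclei were counted on 4× images. Relative viability is the nuclei count in treated wells divided by the count in vehicle wells, and each value is the median of duplicate plates.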"}, "SW 900": {"system": "SW 900", "method_in_brief": "as §1"}, "NCI-H23": {"system": "NCI-H23", "method_in_brief": "as §1"}, "NCI-H1666": {"system": "NCI-H1666", "method_in_brief": "as §1"}, "ChaGo-K-1": {"system": "ChaGo-K-1", "method_in_brief": "as §1"}, "NCI-H1755": {"system": "NCI-H1755", "method_in_brief": "as §1"}, "NCI-H1792": {"system": "NCI-H1792", "method_in_brief": "as §1"}, "NCI-H596": {"system": "NCI-H596", "method_in_brief": "as §1"}, "H3255": {"system": "H3255", "method_in_brief": "as §1"}, "SK-MES-1": {"system": "SK-MES-1", "method_in_brief": "as §1"}, "NCI-H1734": {"system": "NCI-H1734", "method_in_brief": "as §1"}, "LOU-NH91": {"system": "LOU-NH91", "method_in_brief": "as §1"}, "PC-3 [JPC-3]": {"system": "PC-3 [JPC-3]", "method_in_brief": "as §1"}, "NCI-H1563": {"system": "NCI-H1563", "method_in_brief": "as §1"}, "EKVX": {"system": "EKVX", "method_in_brief": "as §1"}, "A-427": {"system": "A-427", "method_in_brief": "as §1"}, "NCI-H441": {"system": "NCI-H441", "method_in_brief": "as §1"}, "LK-2": {"system": "LK-2", "method_in_brief": "as §1"}, "EMC-BAC-2": {"system": "EMC-BAC-2", "method_in_brief": "as §1"}, "NCI-H2170": {"system": "NCI-H2170", "method_in_brief": "as §1"}, "HCC-366": {"system": "HCC-366", "method_in_brief": "as §1"}, "COR-L 105": {"system": "COR-L 105", "method_in_brief": "as §1"}, "NCI-H520": {"system": "NCI-H520", "method_in_brief": "as §1"}}, "data": [{"smiles": "Oc1nc(-c2ccc(C(F)(F)F)cc2)nc2c1CSCC2", "note": "[XAV939] + COc1cccc2cc(-c3nc([C@H]4CC[C@H](C(=O)O)CC4)n4ncnc(N)c34)[nH]c12 [OSI-027] (partner 0.5 µM)", "values": [{"measurement": "relative viability", "setting": "NCI-H1975; first compound 0.08 µM", "value": 0.829}, {"measurement": "relative viability", "setting": "NCI-H1975; first compound 0.253 µM", "value": 0.639}, {"measurement": "relative viability", "setting": "NCI-H1975; first compound 0.8 µM", "value": 0.681}, {"measurement": "relative viability", "setting": "NCI-H1975; first compound 2.53 µM", "value": 0.526}, {"measurement": "relative viability", "setting": "SW 900; first compound 0.08 µM", "value": 0.779}, {"measurement": "relative viability", "setting": "SW 900; first compound 0.253 µM", "value": 0.572}, {"measurement": "relative viability", "setting": "SW 900; first compound 0.8 µM", "value": 0.687}, {"measurement": "relative viability", "setting": "SW 900; first compound 2.53 µM", "value": 0.476}, {"measurement": "relative viability", "setting": "NCI-H23; first compound 0.08 µM", "value": 0.65}, {"measurement": "relative viability", "setting": "NCI-H23; first compound 0.253 µM", "value": 0.555}, {"measurement": "relative viability", "setting": "NCI-H23; first compound 0.8 µM", "value": 0.628}, {"measurement": "relative viability", "setting": "NCI-H23; first compound 2.53 µM", "value": 0.432}, {"measurement": "relative viability", "setting": "NCI-H1666; first compound 0.08 µM", "value": 0.883}, {"measurement": "relative viability", "setting": "NCI-H1666; first compound 0.253 µM", "value": 0.711}, {"measurement": "relative viability", "setting": "NCI-H1666; first compound 0.8 µM", "value": 0.752}, {"measurement": "relative viability", "setting": "NCI-H1666; first compound 2.53 µM", "value": 0.627}, {"measurement": "relative viability", "setting": "ChaGo-K-1; first compound 0.08 µM", "value": 0.562}, {"measurement": "relative viability", "setting": "ChaGo-K-1; first compound 0.253 µM", "value": 0.534}, {"measurement": "relative viability", "setting": "ChaGo-K-1; first compound 0.8 µM", "value": 0.533}, {"measurement": "relative viability", "setting": "ChaGo-K-1; first compound 2.53 µM", "value": 0.472}, {"measurement": "relative viability", "setting": "NCI-H1755; first compound 0.08 µM", "value": 0.731}, {"measurement": "relative viability", "setting": "NCI-H1755; first compound 0.253 µM", "value": 0.683}, {"measurement": "relative viability", "setting": "NCI-H1755; first compound 0.8 µM", "value": 0.739}, {"measurement": "relative viability", "setting": "NCI-H1755; first compound 2.53 µM", "value": 0.585}, {"measurement": "relative viability", "setting": "NCI-H1792; first compound 0.08 µM", "value": 0.82}, {"measurement": "relative viability", "setting": "NCI-H1792; first compound 0.253 µM", "value": 0.677}, {"measurement": "relative viability", "setting": "NCI-H1792; first compound 0.8 µM", "value": 0.839}, {"measurement": "relative viability", "setting": "NCI-H1792; first compound 2.53 µM", "value": 0.672}, {"measurement": "relative viability", "setting": "NCI-H596; first compound 0.08 µM", "value": 0.803}, {"measurement": "relative viability", "setting": "NCI-H596; first compound 0.253 µM", "value": 0.796}, {"measurement": "relative viability", "setting": "NCI-H596; first compound 0.8 µM", "value": 0.768}, {"measurement": "relative viability", "setting": "NCI-H596; first compound 2.53 µM", "value": 0.622}, {"measurement": "relative viability", "setting": "H3255; first compound 0.08 µM", "value": 0.555}, {"measurement": "relative viability", "setting": "H3255; first compound 0.253 µM", "value": 0.584}, {"measurement": "relative viability", "setting": "H3255; first compound 0.8 µM", "value": 0.6}, {"measurement": "relative viability", "setting": "H3255; first compound 2.53 µM", "value": 0.384}, {"measurement": "relative viability", "setting": "SK-MES-1; first compound 0.08 µM", "value": 0.576}, {"measurement": "relative viability", "setting": "SK-MES-1; first compound 0.253 µM", "value": 0.584}, {"measurement": "relative viability", "setting": "SK-MES-1; first compound 0.8 µM", "value": 0.631}, {"measurement": "relative viability", "setting": "SK-MES-1; first compound 2.53 µM", "value": 0.424}, {"measurement": "relative viability", "setting": "NCI-H1734; first compound 0.08 µM", "value": 0.632}, {"measurement": "relative viability", "setting": "NCI-H1734; first compound 0.253 µM", "value": 0.551}, {"measurement": "relative viability", "setting": "NCI-H1734; first compound 0.8 µM", "value": 0.575}, {"measurement": "relative viability", "setting": "NCI-H1734; first compound 2.53 µM", "value": 0.51}, {"measurement": "relative viability", "setting": "LOU-NH91; first compound 0.08 µM", "value": 0.701}, {"measurement": "relative viability", "setting": "LOU-NH91; first compound 0.253 µM", "value": 0.662}, {"measurement": "relative viability", "setting": "LOU-NH91; first compound 0.8 µM", "value": 0.69}, {"measurement": "relative viability", "setting": "LOU-NH91; first compound 2.53 µM", "value": 0.675}, {"measurement": "relative viability", "setting": "PC-3 [JPC-3]; first compound 0.08 µM", "value": 0.756}, {"measurement": "relative viability", "setting": "PC-3 [JPC-3]; first compound 0.253 µM", "value": 0.611}, {"measurement": "relative viability", "setting": "PC-3 [JPC-3]; first compound 0.8 µM", "value": 0.777}, {"measurement": "relative viability", "setting": "PC-3 [JPC-3]; first compound 2.53 µM", "value": 0.599}, {"measurement": "relative viability", "setting": "NCI-H1563; first compound 0.08 µM", "value": 0.844}, {"measurement": "relative viability", "setting": "NCI-H1563; first compound 0.253 µM", "value": 0.769}, {"measurement": "relative viability", "setting": "NCI-H1563; first compound 0.8 µM", "value": 0.708}, {"measurement": "relative viability", "setting": "NCI-H1563; first compound 2.53 µM", "value": 0.614}, {"measurement": "relative viability", "setting": "EKVX; first compound 0.08 µM", "value": 0.719}, {"measurement": "relative viability", "setting": "EKVX; first compound 0.253 µM", "value": 0.686}, {"measurement": "relative viability", "setting": "EKVX; first compound 0.8 µM", "value": 0.593}, {"measurement": "relative viability", "setting": "EKVX; first compound 2.53 µM", "value": 0.532}, {"measurement": "relative viability", "setting": "A-427; first compound 0.08 µM", "value": 0.49}, {"measurement": "relative viability", "setting": "A-427; first compound 0.253 µM", "value": 0.427}, {"measurement": "relative viability", "setting": "A-427; first compound 0.8 µM", "value": 0.419}, {"measurement": "relative viability", "setting": "A-427; first compound 2.53 µM", "value": 0.393}, {"measurement": "relative viability", "setting": "NCI-H441; first compound 0.08 µM", "value": 0.657}, {"measurement": "relative viability", "setting": "NCI-H441; first compound 0.253 µM", "value": 0.794}, {"measurement": "relative viability", "setting": "NCI-H441; first compound 0.8 µM", "value": 0.697}, {"measurement": "relative viability", "setting": "NCI-H441; first compound 2.53 µM", "value": 0.568}, {"measurement": "relative viability", "setting": "LK-2; first compound 0.08 µM", "value": 0.168}, {"measurement": "relative viability", "setting": "LK-2; first compound 0.253 µM", "value": 0.232}, {"measurement": "relative viability", "setting": "LK-2; first compound 0.8 µM", "value": 0.188}, {"measurement": "relative viability", "setting": "LK-2; first compound 2.53 µM", "value": 0.206}, {"measurement": "relative viability", "setting": "EMC-BAC-2; first compound 0.08 µM", "value": 0.402}, {"measurement": "relative viability", "setting": "EMC-BAC-2; first compound 0.253 µM", "value": 0.344}, {"measurement": "relative viability", "setting": "EMC-BAC-2; first compound 0.8 µM", "value": 0.319}, {"measurement": "relative viability", "setting": "EMC-BAC-2; first compound 2.53 µM", "value": 0.236}, {"measurement": "relative viability", "setting": "NCI-H2170; first compound 0.08 µM", "value": 0.749}, {"measurement": "relative viability", "setting": "NCI-H2170; first compound 0.253 µM", "value": 0.493}, {"measurement": "relative viability", "setting": "NCI-H2170; first compound 0.8 µM", "value": 0.643}, {"measurement": "relative viability", "setting": "NCI-H2170; first compound 2.53 µM", "value": 0.611}, {"measurement": "relative viability", "setting": "HCC-366; first compound 0.08 µM", "value": 0.962}, {"measurement": "relative viability", "setting": "HCC-366; first compound 0.253 µM", "value": 0.666}, {"measurement": "relative viability", "setting": "HCC-366; first compound 0.8 µM", "value": 1.03}, {"measurement": "relative viability", "setting": "HCC-366; first compound 2.53 µM", "value": 0.767}, {"measurement": "relative viability", "setting": "COR-L 105; first compound 0.08 µM", "value": 0.722}, {"measurement": "relative viability", "setting": "COR-L 105; first compound 0.253 µM", "value": 0.589}, {"measurement": "relative viability", "setting": "COR-L 105; first compound 0.8 µM", "value": 0.5}, {"measurement": "relative viability", "setting": "COR-L 105; first compound 2.53 µM", "value": 0.482}, {"measurement": "relative viability", "setting": "NCI-H520; first compound 0.08 µM", "value": 0.262}, {"measurement": "relative viability", "setting": "NCI-H520; first compound 0.253 µM", "value": 0.225}, {"measurement": "relative viability", "setting": "NCI-H520; first compound 0.8 µM", "value": 0.224}, {"measurement": "relative viability", "setting": "NCI-H520; first compound 2.53 µM", "value": 0.225}]}]}
